Results reported in DBAASP.
In brackets after ≈: the same amount, converted by molar mass.

How the values were obtained:
Assay in all cases: ≥ marks a high value that may be exact or a test limit, other limits are often not marked, values filed in µg/mL are converted to µM
[1] = tested on: Salmonella enterica subsp. enterica serovar Typhimurium C77-31
[2] = tested on: Staphylococcus aureus ATCC 25923
[3] = tested on: Pseudomonas aeruginosa ATCC 27853
[4] = tested on: Salmonella enterica subsp. enterica serovar Typhimurium ATCC 14028
[5] = tested on: Candida tropicalis CGMCC 2.1975
[6] = tested on: Candida parapsilosis CGMCC 2.3989
Escherichia coli 078 = tested on: Escherichia coli 078
[7] = tested on: Salmonella enterica subsp. enterica serovar Pullorum ATCC 7913
[8] = tested on: Staphylococcus epidermidis ATCC 12228
Escherichia coli UB1005 = tested on: Escherichia coli UB1005
Escherichia coli K99 = tested on: Escherichia coli K99
[9] = tested on: Staphylococcus aureus ATCC 43300
Escherichia coli K88 = tested on: Escherichia coli K88
[10] = tested on: Enterococcus faecalis ATCC 29212
[11] = tested on: Pseudomonas aeruginosa CMCCB 1010
Klebsiella pneumoniae = tested on: Klebsiella pneumoniae
Shigella dysenteriae = tested on: Shigella dysenteriae
Pseudomonas aeruginosa = tested on: Pseudomonas aeruginosa
[12] = tested on: Escherichia coli ATCC 25922
[13] = tested on: Bordetella bronchiseptica CUN 11844-99
[14] = tested on: Franconibacter helveticus DSM 18390
[15] = tested on: Bacillus subtilis DSM 347
[16] = tested on: Escherichia coli DSM 1116
[17] = tested on: Staphylococcus xylosus DSM 20287
Escherichia coli ML-35 = tested on: Escherichia coli ML-35
[18] = tested on: Serratia marcescens ATCC 8100

Row | MIC [2] [µM] | MIC [3] [µM] | MIC [4] [µM] | MIC [12] [µM] | MIC [14] [µM] | MIC [15] [µM] | MIC [16] [µM] | MIC [17] [µM] | Structure (SMILES) | further results
1 | 4 (≈ 5.37 µg/mL) | 16 (≈ 21.5 µg/mL) | 4 (≈ 5.37 µg/mL) | – | – | – | – | – | CC[C@H](C)[C@H](NC(=O)[C@H](CCCN=C(N)N)NC(=O)[C@H](C)NC(=O)[C@H](C)N)C(=O)N[C@H](C(=O)N[C@@H](CC(C)C)C(=O)N[C@@H](CCCN=C(N)N)C(=O)N[C@@H](C)C(=O)N[C@@H](CCCN=C(N)N)C(=O)N[C@@H](Cc1ccccc1)C(=O)N[C@@H](CCCN=C(N)N)C(N)=O)[C@@H](C)CC [AARIILRARFR] | MIC [1]: 4 µM (≈ 5.37 µg/mL); MIC [5]: 4 µM (≈ 5.37 µg/mL); MIC [6]: 16 µM (≈ 21.5 µg/mL); MIC (Escherichia coli 078): 4 µM (≈ 5.37 µg/mL); MIC [7]: 4 µM (≈ 5.37 µg/mL); MIC [8]: 2 µM (≈ 2.68 µg/mL); MIC (Escherichia coli UB1005): 2 µM (≈ 2.68 µg/mL); MIC (Escherichia coli K99): 2 µM (≈ 2.68 µg/mL); MIC [9]: 2 µM (≈ 2.68 µg/mL); MIC (Escherichia coli K88): 2 µM (≈ 2.68 µg/mL)
2 | 2 (≈ 2.77 µg/mL) | 16 (≈ 22.1 µg/mL) | 2 (≈ 2.77 µg/mL) | – | – | – | – | – | CC[C@H](C)[C@H](NC(=O)[C@H](CCCN=C(N)N)NC(=O)[C@H](CC(C)C)NC(=O)[C@@H](NC(=O)[C@@H](NC(=O)[C@H](CCCN=C(N)N)NC(=O)[C@H](C)NC(=O)[C@H](C)N)[C@@H](C)CC)[C@@H](C)CC)C(=O)N[C@@H](CCCN=C(N)N)C(=O)N[C@@H](Cc1ccccc1)C(=O)N[C@@H](CCCN=C(N)N)C(N)=O [AARIILRIRFR] | MIC [1]: 4 µM (≈ 5.54 µg/mL); MIC [5]: 4 µM (≈ 5.54 µg/mL); MIC [6]: 4 µM (≈ 5.54 µg/mL); MIC (Escherichia coli 078): 2 µM (≈ 2.77 µg/mL); MIC [7]: 2 µM (≈ 2.77 µg/mL); MIC [8]: 2 µM (≈ 2.77 µg/mL); MIC (Escherichia coli UB1005): 4 µM (≈ 5.54 µg/mL); MIC (Escherichia coli K99): 4 µM (≈ 5.54 µg/mL); MIC [9]: 2 µM (≈ 2.77 µg/mL); MIC (Escherichia coli K88): 2 µM (≈ 2.77 µg/mL)
3 | 20 (≈ 61 µg/mL) | 33 (≈ 101 µg/mL) | – | 13 (≈ 39.7 µg/mL) | – | – | – | – | CC[C@H](C)[C@H](NC(=O)[C@H](CC(C)C)NC(=O)[C@@H](NC(=O)[C@@H](NC(=O)[C@H](C)NC(=O)[C@@H](NC(=O)[C@H](CC(N)=O)NC(=O)[C@H](CCCCN)NC(=O)[C@H](C)NC(=O)[C@@H](NC(=O)[C@H](CC(N)=O)NC(=O)[C@H](CCCCN)NC(=O)[C@H](C)NC(=O)[C@@H](NC(=O)[C@H](CC(=O)O)NC(=O)[C@H](CCSC)NC(=O)[C@H](Cc1ccccc1)NC(=O)CN)[C@@H](C)O)C(C)C)C(C)C)C(C)C)[C@@H](C)O)C(=O)N[C@@H](CC(=O)O)C(=O)N[C@@H](CCCCN)C(=O)N[C@@H](CC(C)C)C(=O)N[C@@H](CCCN=C(N)N)C(=O)N[C@H]1CSSC[C@@H](C(=O)O)NC(=O)CNC(=O)CNC(=O)[C@H]([C@@H](C)O)NC(=O)[C@H](C(C)C)NC(=O)[C@H](CCCCN)NC1=O [GFMDTAKNVAKNVAVTLIDKLRCKVTGGC] | MIC [10]: 20 µM (≈ 61 µg/mL); MIC [11]: 20 µM (≈ 61 µg/mL); MIC (Klebsiella pneumoniae): 50 µM (≈ 153 µg/mL); MIC (Shigella dysenteriae): ≥ 50 µM; MIC (Pseudomonas aeruginosa): 50 µM (≈ 153 µg/mL)
4 | 12 (≈ 32 µg/mL) | – | – | 24 (≈ 64 µg/mL) | – | – | – | – | NCCCC[C@H](NC(=O)[C@H](Cc1ccc(O)cc1)NC(=O)[C@H](CCCN=C(N)N)NC(=O)[C@H](CCCN=C(N)N)NC(=O)CN)C(=O)N[C@@H](CCCCN)C(=O)N[C@@H](Cc1ccccc1)C(=O)N[C@@H](CCCCN)C(=O)N[C@@H](Cc1c[nH]c2ccccc12)C(=O)N[C@@H](CCCN=C(N)N)C(=O)N[C@@H](Cc1ccccc1)C(=O)N[C@@H](CCCN=C(N)N)C(=O)NCC(=O)N[C@@H](CCCN=C(N)N)C(=O)N[C@@H](Cc1ccccc1)C(=O)N[C@@H](Cc1c[nH]c2ccccc12)C(=O)N[C@@H](Cc1ccccc1)C(=O)N[C@@H](Cc1c[nH]c2ccccc12)C(=O)NCC(N)=O [GRRYKKFKWRFRGRFWFWG] | MIC [13]: 6 µM (≈ 16 µg/mL)
5 | – | – | – | – | 1.37 (≈ 2.83 µg/mL) | 1.37 (≈ 2.83 µg/mL) | 1.94 (≈ 4 µg/mL) | 1.37 (≈ 2.83 µg/mL) | CC[C@H](C)[C@H](N)C(=O)N[C@@H](C)C(=O)NCC(=O)N[C@@H](CCCCN)C(=O)N[C@H](C(=O)N[C@@H](C)C(=O)N[C@@H](CCCCN)C(=O)N[C@H](C(=O)N[C@@H](C)C(=O)NCC(=O)N[C@@H](CCCCN)C(=O)N[C@H](C(=O)N[C@@H](C)C(=O)N[C@@H](CCCCN)C(=O)N[C@H](C(=O)N[C@@H](C)C(=O)NCC(=O)N[C@@H](CCCCN)C(=O)N[C@H](C(=O)N[C@@H](C)C(=O)N[C@@H](CCCCN)C(N)=O)[C@@H](C)CC)[C@@H](C)CC)[C@@H](C)CC)[C@@H](C)CC)[C@@H](C)CC [IAGKIAKIAGKIAKIAGKIAK] | –
6 | – | – | – | – | ≥ 53.4 | 9.44 (≈ 16 µg/mL) | ≥ 75.6 | ≥ 75.6 | CC[C@H](C)[C@H](N)C(=O)N[C@@H](C)C(=O)N[C@@H](CCCCN)C(=O)N[C@H](C(=O)N[C@@H](C)C(=O)NCC(=O)N[C@@H](CCCCN)C(=O)N[C@H](C(=O)N[C@@H](C)C(=O)N[C@@H](CCCCN)C(=O)N[C@H](C(=O)N[C@@H](C)C(=O)NCC(=O)N[C@@H](CCCCN)C(=O)N[C@H](C(=O)N[C@@H](C)C(=O)N[C@@H](CCCCN)C(N)=O)[C@@H](C)CC)[C@@H](C)CC)[C@@H](C)CC)[C@@H](C)CC [IAKIAGKIAKIAGKIAK] | –
7 | – | – | – | – | 0.842 (≈ 2 µg/mL) | 0.842 (≈ 2 µg/mL) | 0.842 (≈ 2 µg/mL) | 0.842 (≈ 2 µg/mL) | CC[C@H](C)[C@H](NC(=O)[C@H](CCCCN)NC(=O)CNC(=O)[C@H](C)NC(=O)[C@@H](NC(=O)[C@H](CCCCN)NC(=O)[C@H](C)NC(=O)[C@@H](NC(=O)[C@H](CCCCN)NC(=O)CNC(=O)[C@H](C)NC(=O)[C@@H](NC(=O)[C@H](CCCCN)NC(=O)[C@H](C)NC(=O)[C@@H](NC(=O)[C@H](CCCCN)NC(=O)CNC(=O)[C@H](C)NC(=O)[C@@H](NC(=O)[C@H](CCCCN)NC(=O)[C@H](C)NC(=O)[C@@H](NC(=O)[C@@H](N)CCCCN)[C@@H](C)CC)[C@@H](C)CC)[C@@H](C)CC)[C@@H](C)CC)[C@@H](C)CC)[C@@H](C)CC)C(=O)N[C@@H](C)C(N)=O [KIAKIAGKIAKIAGKIAKIAGKIA] | –
8 | – | – | – | – | 9.44 (≈ 16 µg/mL) | 6.68 (≈ 11.3 µg/mL) | 6.68 (≈ 11.3 µg/mL) | ≥ 37.8 | CC[C@H](C)[C@H](NC(=O)[C@H](CCCCN)NC(=O)CNC(=O)[C@H](C)NC(=O)[C@@H](NC(=O)[C@H](CCCCN)NC(=O)[C@H](C)NC(=O)[C@@H](NC(=O)[C@H](CCCCN)NC(=O)CNC(=O)[C@H](C)NC(=O)[C@@H](NC(=O)[C@H](CCCCN)NC(=O)[C@H](C)NC(=O)[C@@H](NC(=O)[C@@H](N)CCCCN)[C@@H](C)CC)[C@@H](C)CC)[C@@H](C)CC)[C@@H](C)CC)C(=O)N[C@@H](C)C(N)=O [KIAKIAGKIAKIAGKIA] | –
9 | > 128 | – | > 128 | > 128 | – | – | – | – | CC[C@H](C)[C@H](NC(=O)[C@@H]1CCCN1C(=O)[C@H](CCCN=C(N)N)NC(=O)[C@@H]1CCCN1C(=O)CNC(=O)[C@@H]1CCCN1C(=O)[C@H](CCCN=C(N)N)NC(=O)[C@@H]1CCCN1C(=O)[C@H](Cc1ccccc1)NC(=O)[C@@H]1CCCN1C(=O)[C@H](CC(C)C)NC(=O)[C@@H]1CCCN1C(=O)[C@H](CCCN=C(N)N)NC(=O)[C@@H]1CCCN1)C(=O)O [PRPLPFPRPGPRPI] | MIC (Escherichia coli ML-35): ≥ 128 µM; MIC [18]: ≥ 128 µM
